These results are taken from PubChem BioAssay AID1996.

Values after ≈ are worked out from the molar mass of the structure shown.

For this series the following is noted: buffer; pH 7.4; 200.0 µM.
Molecule `Nc1nonc1C(=O)NCCNc1ncccc1[N+](=O)[O-]` displayed a kinetic solubility of 30.2 µg/mL (≈ 103 µM).

Take `Cc1cccc(NC(=O)C(=O)NCCc2c[nH]c3ccccc23)c1C`: the solubility (kinetic) turned out to be 1.4 µg/mL (≈ 4.17 µM).

Take `Cc1onc(-c2ccccc2Cl)c1C(O)c1ccc(F)cc1` (stereo unspecified): the kinetic solubility came out at 46.6 µg/mL (≈ 147 µM).

`Cc1cccc(NC(=O)CSc2nc(C3CC3)nc3ccccc23)c1`: the kinetic solubility stood at 0.3 µg/mL (≈ 0.858 µM).

With `COCc1cc(=O)[nH]c(SCCS(=O)(=O)c2ccc(C)cc2)n1`, the solubility (kinetic) is > 53.2 µg/mL.

For the molecule `O=C(COC(=O)c1ccc(Br)o1)NCc1ccc(Cl)cc1`, the kinetic solubility was 7.2 µg/mL (≈ 19.3 µM).

Take `CC(C)Nc1nc(NC2CCCC2)nc(N2CCOCC2)n1`: the kinetic solubility stood at 16.3 µg/mL (≈ 53.2 µM).

`CC(Cl)C(=O)c1c[nH]c2ccccc12` (stereo unspecified): the solubility (kinetic) was found to be 21.4 µg/mL (≈ 103 µM).

For the molecule `COc1cc(C(=O)Nc2ccn(C)n2)ccc1OC(F)F`, the kinetic solubility is > 44.6 µg/mL.

`CCc1ccccc1NC(=O)c1cc(-c2ccc(OC)cc2)on1`: the solubility (kinetic) was < 0.3 µg/mL.

`O=C(NCc1ccccc1F)C12CC3CC(CC(C3)C1)C2` came in with a kinetic solubility of 1 µg/mL (≈ 3.48 µM).

For the molecule `O=C1CCCN1c1ccc(S(=O)(=O)N2CCCCC2)cc1`, the kinetic solubility worked out at 22.5 µg/mL (≈ 73 µM).

Consider `C1CCCCCC(NCCN2CCNCC2)CCCCC1`, for which the solubility (kinetic) is > 44.3 µg/mL.

`O=C(Nc1ccc(Cl)cc1F)C1CC1c1ccccc1` (stereo unspecified) yielded a kinetic solubility of 1.4 µg/mL (≈ 4.83 µM).

For `COC(=O)c1ccc(NC(=O)CCN2CCOCC2)cc1`, the kinetic solubility is > 43.9 µg/mL.

`CC(C)c1ccccc1NC(=O)C1C2C=CC(C2)C1C(=O)O` (stereo unspecified) came in with a kinetic solubility of 42.1 µg/mL (≈ 141 µM).

As to `COc1ccccc1OCCCC(=O)NC(C)c1ccccc1` (stereo unspecified), the kinetic solubility is > 47 µg/mL.

Turning to `Cc1ccc(C(=O)NCCCNC(=O)c2ccco2)cn1`, the solubility (kinetic) worked out at 34.3 µg/mL (≈ 119 µM).

On to `Cc1ccc2nc(NCc3ccccc3)c(C#N)cc2c1`, for which the solubility (kinetic) is 2.8 µg/mL (≈ 10.2 µM).

As for `Cc1ccc(C(=O)Nc2ccc(F)c(S(=O)(=O)N3CCOCC3)c2)s1`, the kinetic solubility was found to be 5.3 µg/mL (≈ 13.8 µM).

The molecule `Cc1ccc(NC(=O)CNCc2ccccc2)c(Br)c1` yielded a solubility (kinetic) of 34.3 µg/mL (≈ 103 µM).

`Cc1c(NC(=O)CN2CCCC(C)C2)ccc2nsnc12` (stereo unspecified) gave a kinetic solubility of 42.6 µg/mL (≈ 140 µM).

As to `COc1ccc(CCNC(=O)/C=C/c2ccco2)cc1`, the solubility (kinetic) is 38.9 µg/mL (≈ 143 µM).

As for `Cc1cc(C)[n+](-c2ccc(Oc3ccccc3)c(S(=O)(=O)[O-])c2)[nH]1`, the solubility (kinetic) is > 51.7 µg/mL.

On to `CCOC(=O)C1CCCN(C(=O)COc2ccc(C(=O)c3ccc(F)cc3)cc2)C1` (stereo unspecified), for which the solubility (kinetic) is > 62 µg/mL.

Regarding `CCC(=O)c1cn(CC(=O)Nc2cc(C)ccc2C)c2ccccc12`, the kinetic solubility is < 0.4 µg/mL.

As to `O=C(CN1N=C(c2ccccc2)CCC1=O)NCc1cccs1`, the solubility (kinetic) was > 49.1 µg/mL.

`COC(=O)c1c(C(=O)OC)c2ccccn2c1C(=O)c1ccccc1` gave a solubility (kinetic) of 6.2 µg/mL (≈ 18.4 µM).

In the case of `Cc1cccc(-c2noc(C(C)NC(=O)c3ccco3)n2)c1` (stereo unspecified), the kinetic solubility came out at 32.9 µg/mL (≈ 111 µM).

Take `CC(=O)c1cccc(NC(=S)NCc2ccccc2)c1`: the kinetic solubility came to 6.4 µg/mL (≈ 22.5 µM).

Take `CCCCS(=O)(=O)N1CCCC(C(=O)Oc2ccccc2)C1` (stereo unspecified): the kinetic solubility amounted to 13.9 µg/mL (≈ 42.7 µM).

Molecule `COc1ccc(N2C(=O)/C(=C/c3ccco3)C(=O)NC2=S)cc1` had a solubility (kinetic) of 48.8 µg/mL (≈ 149 µM).

Regarding `CC(C)=CC(=O)Nc1ccc(S(=O)(=O)Nc2onc(C)c2C)cc1`, the solubility (kinetic) was > 52.4 µg/mL.

Regarding `COc1ccc2[nH]c(=O)c(CNc3ccc(C)cc3C)cc2c1`, the kinetic solubility stood at 41.5 µg/mL (≈ 135 µM).

Regarding `O=C(Cc1ccccc1)NCCc1c[nH]c2ccccc12.O=C(O)C(=O)O`, the kinetic solubility was determined as 47.8 µg/mL.

Turning to `C/C(=N\NC(=O)c1ccccc1C)c1cccnc1`, the solubility (kinetic) was > 38 µg/mL.

Molecule `CCC(C(=O)Nc1ccc([N+](=O)[O-])cn1)c1ccccc1` (stereo unspecified) returned a solubility (kinetic) of 39.3 µg/mL (≈ 138 µM).

For the molecule `CC(C)c1cccc(C(C)C)c1NC(=O)CN1CCCC1`, the solubility (kinetic) is > 43.3 µg/mL.

For the molecule `CC(=O)N1CCN(C(=O)COC(=O)c2ccc(S(C)(=O)=O)cc2)CC1`, the solubility (kinetic) is > 55.3 µg/mL.

For `N#Cc1ccccc1NC(=O)COc1ccccc1C(=O)Nc1ccccc1`, the solubility (kinetic) is 6.6 µg/mL (≈ 17.8 µM).

On to `CSc1nc(-c2ccc(Cl)cc2)nc(N)c1C#N`, for which the kinetic solubility was < 0.1 µg/mL.

The term solubility (kinetic) denotes solubility judged after dilution from a stock solution rather than from solid.
